Values of other authors, collected in patent US20180028451A1, “IMMEADIATE RELEASE ORAL TABLET” (Boehringer Ingelheim International GmbH, priority 2015, published 2018).

Settings: physiological pH range of the gastro-intestinal tract between pH 1 to 7

solubility in aqueous systems: very poor solubility
SMILES: CCCc1nc2c(C)cc(-c3nc4ccccc4n3C)cc2n1Cc1ccc(-c2ccccc2C(=O)O)cc1 [Telmisartan, 4′-[2-n-propyl-4-methyl-6-(1-methylbenzimidazol-2-yl)-benzimidazol-1-ylmethyl]-biphenyl-2-carboxylic acid]
